The values below come from EP4014973B1, “INHALED LIQUID FOR THE TREATMENT OF RESPIRATORY INFECTIONS IN HUMANS CAUSED BY PATHOGENS RESISTANT TO ANTIBIOTICS” (Conick Biotech LLC, priority 2020, dated 2022).

Read-outs that look alike come from different tables or passages of the source.

In one data set the test system is Cryptococcus. Kind of data set: In vitro comparative zone diameter test on Müller-Hinton-Agar. The conditions noted are these: amount used: novel compound 0.05 mL, Cephalosporin 0.1 mL, Ampicillin 0.2 mL. Format: cell-based.
The test system of the next data set is Candida. Described as above. Particulars: amount used: novel compound 0.05 mL, Cephalosporin 0.1 mL, Ampicillin 0.2 mL. Format: cell-based.
The test system of another data set is Campylobacter. The description is as above. Format: cell-based. The conditions noted are these: amount used: novel compound 0.05 mL, Cephalosporin 0.1 mL, Ampicillin 0.2 mL.
A further data set deals with Pasteurella. Described as above. Particulars: amount used: novel compound 0.05 mL, Cephalosporin 0.1 mL, Ampicillin 0.2 mL. Format: cell-based.
For another data set, the system named is Histoplasma capsulatum. It is filed as cell-based. Particulars: Müller-Hinton-Agar, amount used: novel compound 0.05 mL, Cephalosporin 0.1 mL, Ampicillin 0.2 mL.
The test system of a further data set is Microsporidia. Kind of data set: In vitro comparative zone diameter test on Müller-Hinton-Agar. Format: cell-based. The conditions noted are these: amount used: novel compound 0.05 mL, Cephalosporin 0.1 mL, Ampicillin 0.2 mL.
A further data set relates to Micrococcus. Described as above. It is filed as cell-based. The conditions noted are these: amount used: novel compound 0.05 mL, Cephalosporin 0.1 mL, Ampicillin 0.2 mL.
The subject of data set [1] is rats.
Data set [2] deals with rats. The conditions noted are these: p.o., 2,250 µL / kg.
Data set [3] deals with mice. Particulars: p.o., 2,000 µL / kg.
For data set [4], the system named is mice.
Another data set concerns humans. Nature of the data set: Clinical pilot study of side effects after inhalation. Particulars: 80 humans.
Setting [5] is: inhalatory application, 2,500 µL / kg.
Setting [6] is: inhalatory application, after 14 days.
Setting [7] is: inhalatory application, 2,250 µL / kg.
Setting [8] is: inhalation, 10ml 2% / 30 kg every 8 hours for seven (7) days.

For `CC1(C)S[C@@H]2[C@H](NC(=O)[C@H](N)c3ccccc3)C(=O)N2[C@H]1C(=O)O` [Ampicilin, Ampicillin], the “R (evaluation of the results by zone diameter)” value is recorded as “R (0mm - 4mm: resistant: R)” with Cryptococcus; “R (0mm - 4mm: resistant: R)” in the data set on Candida; “MS (5 - 9 mm: moderately sensitive: MS)” with Campylobacter; “MS (5 - 9 mm: moderately sensitive: MS)” with Pasteurella; “R (0mm - 4mm: resistant: R)” in the data set on Histoplasma capsulatum; “R (0mm - 4mm: resistant: R)” with Microsporidia. The “R (evaluation of the results by zone diameter)” value with Micrococcus was “R (0mm - 4mm: resistant: R)”. In addition, the zone diameter is 0 mm in the data set on Cryptococcus; 4 mm in the data set with Candida; 7 mm with Campylobacter; 5 mm with Pasteurella; 2 mm in the data set on Histoplasma capsulatum; 3 mm in the data set on Microsporidia. Also, the zone diameter in the data set on Micrococcus is 0 mm.

For `C=CCc1ccc(O)c(OC)c1.CCN(CC)CC(=O)Nc1c(C)cccc1C` [Novel Compound, N-[N'-(carboxymethylenyl-2,6-dimethyl-aniline)-N,N-diethylammonium]-[2'-methoxy-4'-(2'-propenyl)]-phenolate.], the “R (evaluation of the results by zone diameter)” value in the data set with Cryptococcus is “ES (21 mm and more: extremely sensitive: ES)”; in the data set on Candida, “ES (21 mm and more: extremely sensitive: ES)”; in the data set with Campylobacter it was “ES (21 mm and more: extremely sensitive: ES)”; in the data set with Pasteurella, “ES (21 mm and more: extremely sensitive: ES)”; in the data set on Microsporidia, “ES (21 mm and more: extremely sensitive: ES)”; with Micrococcus, “ES (21 mm and more: extremely sensitive: ES)”. Besides, the zone diameter in the data set on Cryptococcus is on record as 31 mm; with Candida, 33 mm; in the data set with Campylobacter, 32 mm; in the data set on Pasteurella, 36 mm; in the data set on Microsporidia, 30 mm; in the data set on Micrococcus, 38 mm. The “Breading and cardiac functions” value in the data set on rats [1] (setting [5]), in the data set on rats [2], in the data set with mice [3] and with mice [4] (setting [7]) was “regular” throughout. The “time after which discomfort symptoms disappeared” value with rats [1] (setting [5]) fell in the range of 5 to 6 min; in the data set on rats [2], 1 to 3 min; in the data set on mice [3], 1 to 3 min; in the data set with mice [4] (setting [7]), 3 to 5 min. In the data set with rats [1] (inhalatory application, 2,500 µL / kg, out of hundred (100)), the “rats that changed their behavior and demonstrated discomfort (running, anxiety)” value turned out to be 29. The “reexamination of the animals” value in the data set with rats [1] (setting [6]) and with mice [4] (setting [6]) was “no new irregularities were found” each time. The “rats that changed their behavior and demonstrated light discomfort (running, anxiety)” value in the data set with rats [2] (out of hundred (100)) is 37. Further, the “mice that changed their behavior and demonstrated light discomfort (running, anxiety)” value in the data set with mice [3] (out of hundred (100)) worked out at 23. For the same compound, the “mice that changed their behavior and demonstrated discomfort (running, anxiety)” value in the data set on mice [4] (inhalatory application, 2,250 µL / kg, out of hundred (100)) was determined as 21. Further, in the data set with humans (blood samples before the test, on the 4th and 8th day), the “C Reactive Protein (CRP) measurements” value is on record as “no inflammation was developed”. In the data set with humans (during the inhalation, 10ml 2% / 30 kg every 8 hours for seven (7) days), the “pulse frequency and blood pressure” value was “not significantly altered”. Also, the Electrocardiography measurements entry in the data set with humans (during the intake, 10ml 2% / 30 kg every 8 hours for seven (7) days) was “regular without any pathological and irregular oscillations”. In addition, the coughing result in the data set with humans (in the very beginning of the test) is on record as “Sporadic coughing was recorded in some participants”. Besides, the bronchospasms entry in the data set with humans (setting [8]) is “No bronchospasms were recorded”. Further, in the data set on humans (setting [8]), the dyspnea entry was “No dyspnea was recorded”. In addition, the respiratory function result with humans (setting [8]) is “not disturbed”.
